This note sets out measurements from patent US9375013B2, “Herbicidal composition” (ISHIHARA SANGYO KAISHA, LTD., priority 2013, dated 2016).

What all share (format): in vivo
In experiment [1] the test system is ivy-leaved morningglory (Ipomoea hederacea (L.) Jacq.). Briefly: Test Example 2: pot soil treatment, growth inhibition of ivy-leaved morningglory. Particulars: 22nd day after treatment, read-out: Growth inhibition rate (%) of ivy-leaved morningglory, Measured value. The source says:
(§1) On the 14th day after treatment, the state of growth of the summergrass was visually observed to determine the growth inhibition rate in accordance with the following evaluation standard. The growth inhibition rate (%) (measured value) and the growth inhibition rate (%) (calculated value) calculated by the Colby's formula are shown in Table 1. Growth inhibition rate (%)=0 (equivalent to the non-treated area) to 100 (complete kill) Upland field soil was put into a 1/160,000 ha pot, and seeds of ivy-leaved morningglory (Ipomoea hederacea (L.) Jacq.) were sown. On the next day, predetermined amounts of flazasulfuron and hexazinone were diluted with water (in an amount corresponding to 300 L/ha), and applied for soil treatment by a small sprayer. On the 22nd day after treatment, the state of growth of the ivy-leaved morningglory was visually observed to determine the growth inhibition rate. The growth inhibition rate (%) (measured value) and the growth inhibition rate (%) calculated in the same manner as in Test Example 1 are shown in Table 2.

Experiment [2] has as its system field bindweed (Convolvulus arvensis L.). In words: Test Example 5: pot soil treatment, growth inhibition of field bindweed. Conditions: dose 30 g/ha, 22nd day after treatment, read-out: Growth inhibition rate (%) of field bindweed, Measured value.
Description: as §1, with “field bindweed (Convolvulus arvensis L.)” for “ivy-leaved morningglory (Ipomoea hederacea (L.) Jacq.)”, “field bindweed” for “ivy-leaved morningglory”, “5.” for “2.”

Experiment [3] relates to shattercane (Sorghum bicolor (L.) Moench.). Briefly: Test Example 6: pot soil treatment, growth inhibition of shattercane. Particulars: dose 30 g/ha, 22nd day after treatment, read-out: Growth inhibition rate (%) of shattercane, Measured value. The text has this: On the 14th day after treatment, the state of growth of the summergrass was visually observed to determine the growth inhibition rate in accordance with the following evaluation standard. The growth inhibition rate (%) (measured value) and the growth inhibition rate (%) (calculated value) calculated by the Colby's formula are shown in Table 1. Growth inhibition rate (%)=0 (equivalent to the non-treated area) to 100 (complete kill)
Upland field soil was put into a 1/160,000 ha pot, and seeds of shattercane (Sorghum bicolor (L.) Moench.) were sown. On the next day, predetermined amounts of flazasulfuron and hexazinone were diluted with water (in an amount corresponding to 300 L/ha), and applied for soil treatment by a small sprayer.
On the 22nd day after treatment, the state of growth of the shattercane was visually observed to determine the growth inhibition rate. The growth inhibition rate (%) (measured value) and the growth inhibition rate (%) calculated in the same manner as in Test Example 1 are shown in Table 6.

Experiment [4] concerns rostrate sesbania(Sesbania rostrata Bremek. & Oberm.). Briefly: Test Example 7: pot soil treatment, growth inhibition of rostrate sesbania. Particulars: 22nd day after treatment, read-out: Growth inhibition rate (%) of rostrate sesbania, Measured value.
The subject of experiment [5] is persian speedwell (Veronica persica Poiret.). In words: Test Example 10: pot soil treatment, growth inhibition of persian speedwell. Conditions: dose 30 g/ha, 21st day after treatment, read-out: Growth inhibition rate (%) of persian speedwell, Measured value.
The test system of experiment [6] is common lespedeza (Lespedeza striata (Thunb.) Hook. et Arn.). Briefly: Test Example 12: pot soil treatment, growth inhibition of common lespedeza. Conditions: Kummerowia striata, dose 30 g/ha, 21st day after treatment, read-out: Growth inhibition rate (%) of common lespedeza, Measured value.
Description: as §1, with “common lespedeza (Lespedeza striata (Thunb.) Hook. et Arn.)” for “ivy-leaved morningglory (Ipomoea hederacea (L.) Jacq.)”, “imazapic” for “hexazinone”, “21st” for “22nd”, “common lespedeza” for “ivy-leaved morningglory”, “12.” for “2.”

The subject of experiment [7] is velvetleaf (Abutilon theophrasti MEDIC.). In words: Test Example 14: pot soil treatment, growth inhibition of velvetleaf. Conditions: dose 30 g/ha, 21st day after treatment, read-out: Growth inhibition rate (%) of velvetleaf, Measured value.
Description: as §1, with “velvetleaf (Abutilon theophrasti MEDIC.)” for “ivy-leaved morningglory (Ipomoea hederacea (L.) Jacq.)”, “21st” for “22nd”, “velvetleaf” for “ivy-leaved morningglory”, “14.” for “2.”

Consider `COc1cc(OC)nc(NC(=O)NS(=O)(=O)c2ncccc2C(F)(F)F)n1` [Flazasulfuron, flazasulfuron], for which the inhibition at 10 g/ha in experiment [1] (dose 10 g/ha) came out at 0%. In addition, the inhibition at 30 g/ha was determined as 0% in experiment [1] (dose 30 g/ha); 0% in experiment [2]; 60% in experiment [3]; 15% in experiment [5]; 90% in experiment [6]; 20% in experiment [7]. In addition, the values for the inhibition at 50 g/ha in experiment [1] (dose 50 g/ha) and in experiment [4] were 40% and 35%, respectively.

One may read the inhibition as how much of the control response was suppressed.
